Some test systems named below: SK-OV-3 ovarian; NCI-H23 lung; ACHN renal; CCRF-CEM leukemia; COLO 205 colon; EKVX NSCLC; HS 578T breast; UO-31 renal; T-47D breast; TK-10 renal.
Common to all, as to assay: growth of human tumour cells (NCI), 48 h

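Five compound concentrations were applied to cells in 96-well plates for 48 hours; endpoints were derived by simple linear interpolation of the resulting dose-response curve. The concentration for 50% growth inhibition is given as GI50. The concentration for full growth arrest is given as TGI.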

For the compound `Cc1ccc2c(Nc3cccc(Cl)c3F)ncc(NC(=O)c3csc4c(N)ncnc34)c2c1`, the GI50 is > 100 µM in the assay with SK-OV-3 ovarian; 0.522 µM in the assay with NCI-H23 lung; > 100 µM with ACHN renal; 21.2 µM in the assay on CCRF-CEM leukemia; 0.0492 µM in the assay on COLO 205 colon; > 100 µM with EKVX NSCLC. The GI50 is > 100 µM with HS 578T breast, 0.291 µM in the assay with UO-31 renal, > 100 µM in the assay on T-47D breast and > 100 µM with TK-10 renal. Moreover, the TGI in the assay on SK-OV-3 ovarian, in the assay with NCI-H23 lung, with ACHN renal, in the assay on CCRF-CEM leukemia, with COLO 205 colon and in the assay with EKVX NSCLC was > 100 µM in each case. The TGI in the assay with HS 578T breast, in the assay on UO-31 renal, with T-47D breast and in the assay with TK-10 renal was > 100 µM each time.
With `O=C(O)CCCSc1nc2ccccc2s1`, the TGI with SK-OV-3 ovarian, with NCI-H23 lung, in the assay with ACHN renal, in the assay with CCRF-CEM leukemia, in the assay on COLO 205 colon and in the assay on EKVX NSCLC was > 100 µM throughout. For the same compound, the TGI in the assay with HS 578T breast, in the assay on UO-31 renal, in the assay with T-47D breast and in the assay on TK-10 renal was > 100 µM throughout.
As to `COc1cc(Cn2ccc3c2-c2oncc2CC3)cc(OC)c1`, the GI50 in the assay on SK-OV-3 ovarian was 4.79 µM; with NCI-H23 lung, 3.89 µM; in the assay with ACHN renal it was 5.54 µM; in the assay with CCRF-CEM leukemia it was 3.74 µM; in the assay on COLO 205 colon, 3.7 µM; with EKVX NSCLC it was 4.3 µM. The GI50 in the assay with HS 578T breast is 2.38 µM; in the assay with UO-31 renal, 6.09 µM; with T-47D breast, 3.69 µM; in the assay with TK-10 renal, 8.04 µM. The TGI with SK-OV-3 ovarian is > 100 µM; in the assay with NCI-H23 lung, 52.9 µM; with ACHN renal, 97.9 µM; with CCRF-CEM leukemia, > 100 µM; in the assay with COLO 205 colon, 17.3 µM; with EKVX NSCLC it was 56.1 µM. For the same compound, the TGI is 12.2 µM in the assay on HS 578T breast, 41.6 µM with UO-31 renal, 60.2 µM with T-47D breast and > 100 µM in the assay with TK-10 renal.
For the compound `CN(C)C(=O)c1cc2cnc(Nc3ccc(-c4csc5c(=O)cc(N6CCNCC6)oc45)cc3)nc2n1C1CCCC1`, the GI50 in the assay on SK-OV-3 ovarian was 6.21 µM; with NCI-H23 lung, 0.995 µM; in the assay on ACHN renal, 1.78 µM; in the assay on CCRF-CEM leukemia it was 0.433 µM; in the assay with COLO 205 colon it was 0.671 µM; in the assay on EKVX NSCLC, 1.49 µM. In addition, the GI50 with HS 578T breast is 0.943 µM; in the assay on UO-31 renal, 1.64 µM; in the assay with T-47D breast, 0.949 µM; in the assay on TK-10 renal, 1.34 µM. The TGI with SK-OV-3 ovarian was determined as 21.2 µM; in the assay on NCI-H23 lung it was 2.93 µM; in the assay with ACHN renal, 5.51 µM; in the assay on COLO 205 colon, 4.64 µM; with EKVX NSCLC it was 6.53 µM; with HS 578T breast, 4.39 µM. Further, the TGI with UO-31 renal turned out to be 4.58 µM; with T-47D breast, 9.5 µM; with TK-10 renal it was 14.6 µM.
As to `Cc1ncc(C(=O)Nc2ccc(CN3CCN(C)CC3)c(C(F)(F)F)c2)cc1C#Cc1cnc(N)c2ncccc12`, the GI50 was 0.341 µM in the assay on SK-OV-3 ovarian; 0.841 µM with NCI-H23 lung; 0.063 µM in the assay on ACHN renal; 0.558 µM with CCRF-CEM leukemia; 0.0424 µM in the assay on COLO 205 colon; 1.27 µM in the assay on EKVX NSCLC. In addition, the GI50 in the assay with HS 578T breast is 0.23 µM; in the assay with UO-31 renal, 0.0596 µM; with T-47D breast it was 5.36 µM; in the assay on TK-10 renal it was 0.318 µM. For the same compound, the TGI is 7.2 µM with SK-OV-3 ovarian; 3.3 µM with NCI-H23 lung; 1.65 µM with ACHN renal; > 20.6 µM in the assay with CCRF-CEM leukemia; 1.61 µM in the assay with COLO 205 colon; 3.62 µM in the assay with EKVX NSCLC. For the same compound, the TGI with HS 578T breast was 4.69 µM; with UO-31 renal, 0.775 µM; with T-47D breast, 27.4 µM; with TK-10 renal it was 2.13 µM.
`CO[C@H]1C[C@@H]2CC[C@@H](C)[C@@](O)(O2)C(=O)C(=O)N2CCCC[C@H]2C(=O)O[C@H]([C@H](C)C[C@@H]2CC[C@@H](OP(C)(C)=O)[C@H](OC)C2)CC(=O)[C@H](C)/C=C(\C)[C@@H](O)[C@@H](OC)C(=O)[C@H](C)C[C@H](C)/C=C/C=C/C=C/1C`: the GI50 in the assay on SK-OV-3 ovarian is 0.557 µM; in the assay on NCI-H23 lung, 11.1 µM; with ACHN renal it was 0.411 µM; with CCRF-CEM leukemia it was 8.17 µM; in the assay on COLO 205 colon, 12.7 µM; with EKVX NSCLC, < 0.01 µM. Moreover, the GI50 with UO-31 renal and with T-47D breast was < 0.01 µM each time. Further, the TGI came out at 21.7 µM in the assay with SK-OV-3 ovarian; 29.1 µM with NCI-H23 lung; 21.5 µM with ACHN renal; 52.4 µM with CCRF-CEM leukemia; 27.7 µM in the assay on COLO 205 colon; 18.5 µM in the assay on EKVX NSCLC. For the same compound, the TGI with HS 578T breast was 37.1 µM; with UO-31 renal it was 16.1 µM; in the assay on T-47D breast it was 23 µM; with TK-10 renal it was 22.3 µM.
